Consider nine compounds from ChEMBL document CHEMBL5512632, “Unlocking the potential of 1,4-naphthoquinones: A comprehensive review of their anticancer properties” (Eur J Med Chem, 2024).

In brackets after ≈: the same amount, converted by molar mass. Bounds are passed on as bounds.

Assay [1] deals with MCF7. Put plainly: Antiproliferative activity against human MCF7 cells incubated for 24 hrs by CCK-8 assay. The conditions noted are these: MCF7, 24 h. Type of assay: functional, cell-based. (In general: Tetrazolium assays rely on reduction of a dye to a coloured formazan, in cell work by metabolically active cells.)
For assay [2], the system named is MDA-MB-231. Briefly: Antiproliferative activity against human MDA-MB-231 cells incubated for 24 hrs by CCK-8 assay. Type of assay: functional, cell-based. The conditions noted are these: MDA-MB-231, 24 h.
For a further assay, the system named is MDA-MB-453. Briefly: Antiproliferative activity against human MDA-MB-453 cells incubated for 24 hrs by CCK-8 assay. The format is functional, cell-based. The conditions noted are these: MDA-MB-453, 24 h.
A short description of assay [3]: Antiproliferative activity against human SUM1315MO2 cells incubated for 24 hrs by CCK-8 assay. The conditions noted are these: SUM1315MO2, 24 h. The format is functional, cell-based.
Assay [4] deals with MDA-MB-231. Briefly: Antitumor activity against human MDA-MB-231 cells xenografted in mouse assessed as reduction in tumor volume. Type of assay: functional. (Xenograft models place foreign cells or tissue in a host animal.)
In another assay the test system is K562. Briefly: Cytotoxicity against human K562 cells assessed as reduction in cell viability incubated for 72 hrs by MTT reagent based microplate reader assay. The format is functional. The conditions noted are these: K562, 72 h.
A further assay deals with HCT-15. Briefly: Cytotoxicity against human HCT-15 cells assessed as reduction in cell viability incubated for 72 hrs by MTT reagent based microplate reader assay. The format is functional. To be noted: HCT-15, 72 h.
Assay [5] relates to HCT-116. Briefly: Cytotoxicity against human HCT-116 cells assessed as reduction in cell viability incubated for 72 hrs by MTT reagent based microplate reader assay. The conditions noted are these: HCT-116, 72 h. The format is functional.
Assay [6] relates to HepG2. Briefly: Antiproliferative activity against human HepG2 cells incubated for 72 hrs by MTT assay. Type of assay: functional, cell-based. To be noted: HepG2, 72 h.
The test system of assay [7] is A549. Put plainly: Antiproliferative activity against human A549 cells incubated for 72 hrs by MTT assay. The format is functional, cell-based. To be noted: A549, 72 h.
Assay [8] deals with HCT-116. Briefly: Antiproliferative activity against human HCT-116 cells incubated for 72 hrs by MTT assay. Type of assay: functional, cell-based. To be noted: HCT-116, 72 h.
Assay [9] can be described thus: Antitumor activity against mouse Lewis lung carcinoma cell line implanted in C57BL/6J mouse assessed as reduction in tumor volume at 6 mg/kg administration. On the set-up: scale not given: the % may be the effect or the level left. Type of assay: functional.
For assay [10], the system named is MDA-MB-231. Briefly: Cytotoxicity against human MDA-MB-231 cells incubated for 24 hrs by CCK-8 assay. To be noted: MDA-MB-231, 24 h. The format is functional, cell-based.
In a further assay the test system is MDA-MB-468. Put plainly: Cytotoxicity against human MDA-MB-468 cells incubated for 24 hrs by CCK-8 assay. To be noted: MDA-MB-468, 24 h. The format is functional, cell-based.
The subject of assay [11] is SW480. Briefly: Cytotoxicity against human SW480 cells incubated for 24 hrs by CCK-8 assay. The conditions noted are these: SW480, 24 h. The format is functional, cell-based.
The subject of the next assay is SW-620. Briefly: Cytotoxicity against human SW620 cells incubated for 24 hrs by CCK-8 assay. The format is functional, cell-based. To be noted: SW-620, 24 h.
Assay [12] relates to HCT-116. Put plainly: Cytotoxicity against human HCT-116 cells incubated for 24 hrs by CCK-8 assay. The format is functional, cell-based. To be noted: HCT-116, 24 h.
The test system of assay [13] is A549. Briefly: Cytotoxicity against human A549 cells incubated for 24 hrs by CCK-8 assay. The format is functional, cell-based. To be noted: A549, 24 h.
For a further assay, the system named is Huh-7. Briefly: Cytotoxicity against human Huh-7 cells incubated for 24 hrs by CCK-8 assay. The format is functional, cell-based. The conditions noted are these: Huh-7, 24 h.
The test system of assay [14] is HepG2. Put plainly: Cytotoxicity against human HepG2 cells incubated for 24 hrs by CCK-8 assay. Type of assay: functional, cell-based. The conditions noted are these: HepG2, 24 h.
The test system of a further assay is SK-BR-3. Briefly: Cytotoxicity against human SK-BR-3 cells incubated for 24 hrs by CCK-8 assay. Type of assay: functional, cell-based. To be noted: SK-BR-3, 24 h.
Assay [15] relates to MCF7. Briefly: Cytotoxicity against human MCF7 cells incubated for 24 hrs by CCK-8 assay. Type of assay: functional, cell-based. To be noted: MCF7, 24 h.
For another assay, the system named is BT-549. Briefly: Cytotoxicity against human BT-549 cells incubated for 24 hrs by CCK-8 assay. Type of assay: functional, cell-based. To be noted: BT-549, 24 h.
In another assay the test system is NCI-H1299. Put plainly: Cytotoxicity against human NCI-H1299 cells incubated for 24 hrs by CCK-8 assay. Type of assay: functional, cell-based. To be noted: NCI-H1299, 24 h.
Another assay has as its system NCI-H460. Put plainly: Cytotoxicity against human NCI-H460 cells incubated for 24 hrs by CCK-8 assay. Type of assay: functional, cell-based. The conditions noted are these: NCI-H460, 24 h.
In assay [16] the test system is SW480. Briefly: Antitumor activity against human SW480 cells xenografted in BALB/c mouse assessed as reduction in tumor volume at 20 mg/kg,po administrated with olaparib for 15 days. Type of assay: functional. Details: scale not given: the % may be the effect or the level left. To be noted: time 15 day.
The subject of assay [17] is HepG2. Briefly: Antiproliferative activity against human HepG2 cells assessed as inhibition of cell growth incubated upto 48 hrs by MTT assay. To be noted: HepG2, 48 h. Type of assay: functional, cell-based.
For another assay, the system named is U-87 MG. Briefly: Antitumor activity against human U87 cells xenografted in BALB/c mouse assessed as increase in survival time of animal at 1 mg/kg,ip administrated once every 3 days for 40 days. The format is functional, U-87MG ATCC. To be noted: time 40 day.
Assay [18] relates to C6. Put plainly: Antiproliferative activity against rat C6 cells assessed as inhibition of cell growth incubated for 48 hrs by MTS/PMS assay. The conditions noted are these: C6, 48 h. Type of assay: functional, cell-based.
For assay [19], the system named is C6. Put plainly: Antitumor activity against rat C6 cells implanted in Wistar rat assessed as reduction in tumor volume at 100 mg/kg,IG administration once daily for 20 days. The format is functional. Details: scale not given: the % may be the effect or the level left. To be noted: time 20 day.
For assay [20], the system named is DBTRG-05MG. Briefly: Antiproliferative activity against human DBTRG-05MG cells assessed as inhibition of cell growth incubated for 72 hrs by cell counting kit method. Type of assay: functional, cell-based. The conditions noted are these: Homo sapiens, DBTRG-05MG, 72 h.
The test system of assay [21] is DBTRG-05MG. Put plainly: Antiproliferative activity against human DBTRG-05MG cells assessed as inhibition of cell growth incubated for 72 hrs in presence of sodium orthovanadate by cell counting kit method. The format is functional, cell-based.
A further assay concerns AGS. Put plainly: Cytotoxicity against human AGS cells incubated for 24 hrs by MTS assay. The format is functional, cell-based.
Assay [22] can be described thus: Cytotoxicity against human Lung adenocarcinoma cell line. The format is functional, cell-based.
The subject of assay [23] is A549. Briefly: Cytotoxicity against human A549 cells incubated for 24 hrs by MTT assay. The format is functional, cell-based. To be noted: A549, 24 h.
Assay [24] concerns NAMALVA. Briefly: Antiproliferative activity against human NAMALVA cells assessed as inhibition of cell growth incubated upto 24 hrs by MTT assay. Type of assay: functional, cell-based.
Assay [25] has as its system NAMALVA. Briefly: Antitumor activity against human NAMALVA cells xenografted in NOD/SCID mouse assessed as reduction in tumor weight at 4 mg/kg,ip administration for 19 consecutive days. The format is functional. Details: scale not given: the % may be the effect or the level left.

Turning to `COC(=O)C(NC(=O)CCCCC1CCSC(c2ccc(OC)cc2)S1)S[C@H](CC=C(C)C)C1=CC(=O)c2c(O)ccc(O)c2C1=O` (some centres not stated), the IC50 (in general, the concentration that gives 50% inhibition) was determined as 6.45 µM in the assay on MCF7 [1], 3.49 µM with MDA-MB-231 [2], 6.94 µM in the assay on MDA-MB-453 and 10.5 µM in [3]. Besides, the Activity in the assay on MDA-MB-231 [4] is given as 200 mm3.
As to `COc1cc(C(CCC(C)C)OC)c(OC)c2c1/C(=N/O)C=C/C2=N/O` (configuration not stated), the IC50 with K562 worked out at 1.25 µM; in the assay on HCT-15 it was 1.63 µM; with HCT-116 [5], 2.47 µM.
For the compound `CC(C)=CC[C@H](OC(=O)C1CCOCC1)C1=CC(=O)c2c(O)ccc(O)c2C1=O`, the IC50 with HepG2 [6] is 14.8 µM; with A549 [7] it was 1.67 µM; with HCT-116 [8], greater than 20 µM. Further, the Activity in [9] worked out at 63.45%.
As for `CC(C)=CC[C@H](O)C1=CC(=O)c2c(O)ccc(O)c2C1=O` [ALKANNIN], the IC50 in the assay on MDA-MB-231 [10], in the assay on MDA-MB-468, in the assay with SW480 [11], with SW-620, in the assay on HCT-116 [12] and with A549 [13] was 4 µM throughout. The IC50 in the assay on Huh-7, in the assay on HepG2 [14], in the assay on SK-BR-3, in the assay on MCF7 [15], in the assay on BT-549 and in the assay on NCI-H1299 was 4 µM in each case. In the assay with NCI-H460, this compound displayed an IC50 of 4 µM. Also, in the assay with SW480 [16], the Activity is greater than 50%.
Regarding `O=C1C=CC(=O)c2c(O)cccc21` [JUGLONE], the IC50 with HepG2 [17] was 20.4 µM. The Activity in the assay with U-87 MG is on record as 23.6%.
As to `CC(C)=CCC1=C(O)C(=O)c2ccccc2C1=O` [LAPACHOL], in the assay on C6 [18], the IC50 is 3.7 µM. In the assay on C6 [19], the Activity is on record as 37%.
Turning to `CC1=CC(=O)c2ccccc2C1=O` [MENADIONE], the figures for the IC50 with DBTRG-05MG [20] and with DBTRG-05MG [21] were 22 µM and 13 µM, respectively.
In the assay on AGS, `O=C1C=CC(=O)c2ccccc21` [NAPHTHOQUINONE] had an IC50 of 2.5 µM.
For `CC(C)=CC[C@@H](O)C1=CC(=O)c2c(O)ccc(O)c2C1=O` [SHIKONIN], the 50% inhibitory concentration (IC50) was less than 5 µM in [22], 3.52 µg/mL (≈ 12.2 µM) with A549 [23] and 193 µM with NAMALVA [24]. Also, in the assay on NAMALVA [25], the Activity came out at 50%.
